Assays:
bat FluA polymerase = format: binding
[1] = target: bat FluA polymerase-vRNA promoter complex; format: binding
FluB polymerase = format: binding, human influenza B/Memphis/13/03

Pol II CTD peptide, four heptad repeats Tyr-Ser-Pro-Thr-SerP-Pro-Ser (28 amino acids), FAM-labelled at the N-terminal end for binding assays (Covalab) [28-mer SeP5 peptide]
binding in the absence of the vRNA promotor (bat FluA polymerase): independent of vRNA promoter binding | Kd [1]: 900 nM | higher affinity for Ser5 phosphorylated compared to non-phosphorylated CTD repeats [1]: > 10 fold | Kd (FluB polymerase): 2900 nM

Reference: patent publication US20190252037A1 (priority 2016, published 2019)
